Source: patent publication US5804415A, “Prostaglandin E receptors, their DNA and production” (Takeda Chemical Industries, Ltd., priority 1992, dated 1998)
pIC50: −log10 of the molar value.

Assays:
[1] = biological target: T1, PGE2 receptor (EP3), subtype EP3α (MP660) (Mus musculus, UniProt P30557); experiment: Inhibition of [3H]-PGE2 binding to MP660-transfected COS-1 cell membranes; ligand-binding test; conditions: for order of inhibition of [3H]PGE2 binding by unlabeled PGs: FIG. 2a; for potency in competing for [3H]PGE2 binding relative to PGE2 / competition for [3H]PGE2 binding: FIG. 2b; for competition for [3H]PGE2 binding: PGE analogues
T1 sequence (P30557 1-365): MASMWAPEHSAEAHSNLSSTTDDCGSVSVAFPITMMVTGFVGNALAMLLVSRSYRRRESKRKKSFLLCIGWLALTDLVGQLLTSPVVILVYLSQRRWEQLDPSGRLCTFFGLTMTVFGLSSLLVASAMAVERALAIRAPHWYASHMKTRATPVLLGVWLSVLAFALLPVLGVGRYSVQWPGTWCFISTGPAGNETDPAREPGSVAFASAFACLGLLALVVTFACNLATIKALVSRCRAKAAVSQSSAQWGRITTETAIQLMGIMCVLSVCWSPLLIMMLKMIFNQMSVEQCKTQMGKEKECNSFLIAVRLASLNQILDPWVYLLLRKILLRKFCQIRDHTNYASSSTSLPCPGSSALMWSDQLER
Description: (§1) The cDNA of MP660 was cleaved out with EcoRI and inserted to pcDNAI (Invitrogen) and subcloned, followed by transfection of this plasmid DNA to COS-1 cells by the DEAE-dextran method [D. J. Sussmann and G. Milman, Mol. Cell. Biol., 4, 1641 (1984)]. After 72-hour cultivation, cells were harvested and cell membranes were separated [M. Hirata al., Nature, 349, 617 (1991)].

[2] = biological target: PGE2 receptor (EP2) (MP412) (Mus musculus, UniProt P32240); experiment: Inhibition of [3H]-PGE2 binding to MP412-transfected COS-1 cell membranes; conditions: for order of inhibition of specific [3H]-PGE2 binding by unlabeled PG: FIG. 7; for inhibition of PGE2 binding by subtype ligands: FIG. 8
Chain of PGE2 receptor (EP2) (MP412) (P32240 whole entry, the tested form may be a part): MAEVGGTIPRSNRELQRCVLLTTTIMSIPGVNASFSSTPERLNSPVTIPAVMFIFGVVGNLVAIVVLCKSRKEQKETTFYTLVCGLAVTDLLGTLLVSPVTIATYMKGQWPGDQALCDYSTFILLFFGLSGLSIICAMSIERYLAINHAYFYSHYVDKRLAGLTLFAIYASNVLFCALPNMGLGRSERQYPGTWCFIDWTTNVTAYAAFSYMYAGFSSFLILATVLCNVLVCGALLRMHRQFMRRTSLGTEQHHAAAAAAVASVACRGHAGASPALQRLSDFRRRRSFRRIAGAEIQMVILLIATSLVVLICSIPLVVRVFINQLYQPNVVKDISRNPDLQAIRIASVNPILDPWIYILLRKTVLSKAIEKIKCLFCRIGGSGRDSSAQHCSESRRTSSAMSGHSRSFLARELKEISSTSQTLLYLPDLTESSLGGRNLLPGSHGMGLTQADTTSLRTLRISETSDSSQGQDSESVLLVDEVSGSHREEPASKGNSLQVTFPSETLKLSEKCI
Procedure: Mouse mastocytoma P-815 cell cDNA library carring cDNAs larger than 2.0 kb was prepared according to Example 1 (2). The probe DNA was prepared by PCR using mouse EP3 cDNA as a template; this 482 bp fragment covers the transmembrane segments I-IV region of the EP3 receptor. The 2.0×10^5 clones derived from the cDNA library were screened under either high (Sambrook) or low stringency condition. […] This cDNA was transfected into COS-1 cells according to the same manner as in Example 1 (3).
After the COS-1 cells carring the plasmid DNA obtained in above (1) were cultured for 72 h, cells were harvested and cell membranes were prepared.

[3] = biological target: T2, EP3α receptor (MP660/KCR cells) (Mus musculus, UniProt P30557); experiment: Forskolin-stimulated cAMP synthesis in CHO cells stably expressing EP3α (MP660/KCR cells); type: cell-based
T2 construct: A full-length DNA clone having a 1,095 bp open reading frame, MP660, was thus obtained; expressed in transfected cells; host or cells: CHO-dhfr (lacking dihydrofolate reductase activity) cells; FERM BP-3803)
T2 sequence (P30557 1-365): T1 sequence (P30557 1-365)
Procedure: (§2) To obtain cells that stably express the receptor gene, cDNA transfection was conducted by the method described by Nakajima et al. [J. Biol. Chem., 267, 2437 (1992)] to establish a cell line. Specifically, the EcoRI fragment of MP660 was inserted to pdKCR-dhfr [S. Oikawa et al., Biochem. Biophys. Res. Commun., 164, 39 (1989)], a eukaryotic cell expression vector having the mouse dhfr gene as a selection marker. This plasmid was transfected to CHO-dhfr (lacking dihydrofolate reductase activity) cells [G. Urlaub and L. A. Chasin, Proc. Natl. Acad. Sci. USA, 77, 4216 (1980)] by the calcium phosphate method [F. L. Graham and A. J. van der Eb, Virology, 52, 456 (1973)]. The cells were subjected to selection culture in α-modified Eagle's medium [S. Oikawa et al., Biochem. Biophys. Res. Commun., 164, 39 (1989)] which contained no ribonucleoside and deoxyribonucleoside and which contained 100 unit/ml penicillin, 100 μg/ml streptomycin and 10% dialyzed bovine fetal serum (Cell Culture Laboratories). The cells which proliferated were cloned and clone cells were obtained. EP3α receptor cDNA transfection was confirmed by the RNA blotting method.

[4] = test system: EP3β receptor (MP653/KCR cells); experiment: Forskolin-stimulated cAMP synthesis in CHO cells stably expressing EP3β (MP653/KCR cells); type: cell-based, mouse
Procedure: as §2, with “of MP653” for “of MP660”, “to CHO-dhfr(lacking” for “to CHO-dhfr (lacking”, “method [(F.” for “method [F.”, “cloned to have” for “cloned and”, “clone cells. EP3β” for “clone cells were obtained. EP3α”, “method. Using thus-obtained CHO cells which constantly express the EP3β receptor [MP653/KCR cells; IFO 50397, FERM BP-4183], the effect of PGE2 on forskolin-stimulated cAMP synthesis or M&B28, 767, an EP3 -specific agonist was assessed.” for “method.”

EP2 receptor (MP412) = biological target: T3, EP2 receptor (MP412) (Mus musculus, UniProt P32240); experiment: cAMP assay in MP412-transfected COS-1 cells; type: cell-based
T3 construct: cAMP and inositol phosphate tests
T3 sequence (P32240 whole entry): as the sequence (P32240 whole entry, the tested form may be a part) above
Procedure: For cAMP assay, the plasmid DNA was transfected into COS-1 cells by the lipofection method (P. L. Felgner et al., Proc. Natl. Acad. Sci., 84, 7413 (1987)) and cultured for 72 h in a 24-well plate. Cyclic AMP levels in the cells were determined according to the method of Nakajima et al. (J. Biol. Chem. 267, 2437 (1992)).

EP2 = conditions: literature; cited from earlier work
EP3β receptor (MP653) = experiment: Ligand-binding assay, [3H]-PGE2 binding to MP653-transfected COS-1 cell membranes; parameters: species or system mouse
Description: as §1, with “MP653” for “MP660”, “Hirata et” for “Hirata”, “(1991)]. […] Also, the PGE2 receptor obtained was identified as the subtype EP3β receptor. The result of inhibitory activities of various ligands on the binding of [^3 H]-PGE2 to the MP653-transfected cell membrance was substantially the same as on the binding of [^3 H]-PGE2 to the MP660--transfected cell membrance obtained in Example 1.” for “(1991)].”

[5] = test system: membranes of untransfected cells; experiment: [3H]-PGE2 binding to membranes of untransfected COS-1 cells (control); conditions: untransfected COS-1 cell membranes
Description: as §1, with “(1991)]. […] Also, the PGE2 receptor obtained was identified as the subtype EP3α receptor.” for “(1991)].”
After the COS-1 cells carring the plasmid DNA obtained in above (1) were cultured for 72 h, cells were harvested and cell membranes were prepared. […] The lack of binding activity of butaprost in mouse EP2 might indicate that the action of butaprost is species specific or there may be other forms of EP2 receptor subtype.

| Structure (SMILES) | order of inhibition of [3H]PGE2 binding by unlabeled PGs [1] | order of inhibition of specific [3H]-PGE2 binding by unlabeled PG [2] | competition for [3H]PGE2 binding [1] | inhibition of PGE2 binding by subtype ligands [2] | further results |
| --- | --- | --- | --- | --- | --- |
| CCCCC[C@H](O)/C=C/[C@H]1C(=O)C[C@H](O)[C@@H]1C/C=C\CCCC(=O)O [PGD2] | PGE2 =PGE1 >iloprost, a PGI2 analogue>PGF2α >PGD2 | PGE2 (.largecircle.)=PGE1 (.circle-solid.)>>iloprost(.box-solid.), a stable PGI2 analogue ≥PGF2α (Δ)PGD2 (.quadrature.) | – | – | – |
| O=C(CC/C=C\CC[C@H]1C(=O)C[C@@H](O)[C@@H]1OCC(O)COc1ccccc1)Oc1ccc(NC(=O)c2ccccc2)cc1 (some centres unmarked) [GR 63799X] | – | – | specifically competed for the[^3 H]PGE2 binding with equal potency | – | potency in competing for [3H]PGE2 binding relative to PGE2 [1]: more potent than PGE2 itself |
| CC#CCC(C)[C@H](O)/C=C/[C@@H]1[C@H]2C/C(=C/CCCC(=O)O)C[C@H]2C[C@H]1O (some centres unmarked) [iloprost] | PGE2 =PGE1 >iloprost, a PGI2 analogue>PGF2α >PGD2 | PGE2 (.largecircle.)=PGE1 (.circle-solid.)>>iloprost(.box-solid.), a stable PGI2 analogue ≥PGF2α (Δ)PGD2 (.quadrature.) | – | – | – |
| CCCCC[C@H](O)/C=C/[C@H]1[C@H](O)CC(=O)[C@@H]1CCCCCCC(=O)O [PGE1] | PGE2 =PGE1 >iloprost, a PGI2 analogue>PGF2α >PGD2 | PGE2 (.largecircle.)=PGE1 (.circle-solid.)>>iloprost(.box-solid.), a stable PGI2 analogue ≥PGF2α (Δ)PGD2 (.quadrature.) | – | – | – |
| CCCCC[C@H](O)/C=C/[C@H]1[C@H](O)CC(=O)[C@@H]1C/C=C\CCCC(=O)O [PGE2, prostaglandin E2] | PGE2 =PGE1 >iloprost, a PGI2 analogue>PGF2α >PGD2 | PGE2 (.largecircle.)=PGE1 (.circle-solid.)>>iloprost(.box-solid.), a stable PGI2 analogue ≥PGF2α (Δ)PGD2 (.quadrature.) | – | – | effect on forskolin-induced cAMP synthesis/accumulation ([3]; FIG. 3): dosedependent decrease; pIC50 ([3]; forskolin-induced, FIG. 3, read-out: IC50 (inhibition of forskolin-induced cAMP synthesis)): 10.00; effect on forskolin-stimulated cAMP synthesis [4]: cAMP synthesis in MP653/KCR cells is inhibited; inhibition of forskolin-induced cAMP formation (EP2 receptor (MP412); forskolin): neither inhibited forskolin-induced cAMP formation; cAMP level (EP2 receptor (MP412); no forskolin stated, FIG. 9): dose-dependently increased cAMP level |
| O=C(O)CCCCCC[C@H]1C(=O)CC[C@@H]1/C=C/[C@@H](O)COc1ccccc1 [M&B 28,767] | – | – | specifically competed for the[^3 H]PGE2 binding with equal potency | more weakly | potency in competing for [3H]PGE2 binding relative to PGE2 [1]: more potent than PGE2 itself; effect on forskolin-induced cAMP synthesis/accumulation ([3]; FIG. 3): inhibited forskolin-induced cAMP synthesis; potency in inhibiting forskolin-induced cAMP synthesis relative to PGE2 ([3]; FIG. 3): more potent than (PGE2; effect on forskolin-stimulated cAMP synthesis [4]: cAMP synthesis in MP653/KCR cells is inhibited; cross-reaction to EP2 (EP2): weak cross-reaction |
| CCCC1([C@H](O)C/C=C/[C@H]2[C@H](O)CC(=O)[C@@H]2CCCCCCC(=O)OC)CCC1 [butaprost] | – | – | no competition was found at all | did not inhibit it | – |
| CCCCC[C@H](O)/C=C/[C@H]1[C@H](O)CC(=O)[C@@H]1C/C=C\CCCC(=O)O [[3H]-PGE2] | – | – | – | – | specific binding of [3H]-labeled prostaglandin [1]: found to show specific binding; specific binding of [3H]-labeled prostaglandin (EP3β receptor (MP653)): found to show specific binding; specific binding of [3H]-labeled prostaglandin [2]: found to show specific binding; binding to membranes of untransfected cells ([5]; listed as [^3 H]-PGE2): almost negligible; binding to membranes of untransfected cells ([5]; listed as [^3 H]PGE2): did not bind to membranes of untransfected cells |
| CCCCC[C@H](O)/C=C/[C@@H]1[C@@H](C/C=C\CCCC(=O)O)[C@@H](O)C[C@H]1O [PGF2α] | PGE2 =PGE1 >iloprost, a PGI2 analogue>PGF2α >PGD2 | PGE2 (.largecircle.)=PGE1 (.circle-solid.)>>iloprost(.box-solid.), a stable PGI2 analogue ≥PGF2α (Δ)PGD2 (.quadrature.) | – | – | – |
| CS(=O)(=O)NC(=O)CCC/C=C\C[C@H]1C(=O)C[C@@H](O)[C@@H]1/C=C/[C@@H](O)COc1ccccc1 [sulprostone] | – | – | – | did not inhibit it | – |
| CC(=O)NNC(=O)N1Cc2ccccc2Oc2ccc(Cl)cc21 [SC-19220] | – | – | no competition was found at all | did not inhibit it | – |
| CCCCC(C)(O)C/C=C/[C@H]1[C@H](O)CC(=O)[C@@H]1CCCCCCC(=O)OC (mixture of isomers) [misoprostol] | – | – | – | inhibited | – |
